The values that follow come from patent US8486991B2, “Enantiomerically pure phosphoindoles as HIV inhibitors” (Idenix Pharmaceuticals, Inc., priority 2006, dated 2013).

Structures are written as SMILES. Entries after “also recorded” stand apart in the source; their conditions may differ. Like-named read-outs stand apart in the source and are kept apart here. Where only a bound is given, the exact number is not on record here.

As a reminder, the IC50 is the concentration that inhibits the measured activity by half. In general, EC50 refers to the concentration needed to bring the measured effect to its halfway point.

Data set [1] can be described thus: In vitro half-life in liver microsomes, dog. Format: in vitro ADME. As to conditions: up to one hour, longer half-lives are extrapolated, n=1. As for the experimental part:
In vitro metabolism was assessed using liver microsomes for all species. Compounds were incubated at 1 μM with liver microsomes for up to one hour. Reported half-lives greater than the total incubation time are extrapolated values. Extracts were assayed for disappearance of parent compound by LC-MS/MS detection.
Data represents one independent experiment conducted.

The target in data set [2] is T1, CYP2B6 (Homo sapiens, UniProt P20813).
T1 sequence (P20813 1-491): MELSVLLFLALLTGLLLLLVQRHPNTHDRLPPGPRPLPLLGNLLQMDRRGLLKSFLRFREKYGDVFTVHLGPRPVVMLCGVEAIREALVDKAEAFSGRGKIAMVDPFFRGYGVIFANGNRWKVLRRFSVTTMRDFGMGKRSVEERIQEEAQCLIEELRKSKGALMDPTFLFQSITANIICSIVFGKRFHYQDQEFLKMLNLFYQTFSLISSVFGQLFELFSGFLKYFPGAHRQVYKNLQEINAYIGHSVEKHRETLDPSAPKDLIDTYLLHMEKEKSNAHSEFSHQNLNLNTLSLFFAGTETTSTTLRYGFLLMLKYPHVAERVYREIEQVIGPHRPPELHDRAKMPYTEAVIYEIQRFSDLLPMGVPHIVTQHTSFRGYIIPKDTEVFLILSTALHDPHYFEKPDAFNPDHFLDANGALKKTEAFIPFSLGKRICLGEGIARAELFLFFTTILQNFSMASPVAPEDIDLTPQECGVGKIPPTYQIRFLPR
The data set is described as follows: Human liver microsomal CYP450 inhibition, CYP2B6. As to conditions: for IC50, CYP2B6: human liver microsomes. (In general: Liver microsomes are a subcellular fraction often used to study metabolism.)
Procedure: (§2) In addition, the type of inhibition was also evaluated.
(§3) Enzyme kinetic studies of cytochrome P450 isozyme inhibition were conducted using human liver microsomes.

The nature of data set [3]: Compound depletion in hepatocytes, monkey. Format: in vitro ADME. As to conditions: up to 2 hours, read-out: t½, Compound Depletion in Hepatocytes, Monkey. The protocol: (§1) Fresh hepatocytes were plated onto collagen-coated plates and exposed to test compounds at 1 μM for up to 2 hours. Tissue culture medium was assayed for compound depletion by LC/MS detection. Values in Table 23 represent independent experiments from 5 to 7 donors.

Data set [4] has as its system HIV-1 BH10 K103N mutant virus. The data set is described as follows: microbe, parasite or virus in culture. Format: cell-based. As to conditions: for EC50: unit inferred; for Fold Change, K103N: Table 7.
Data set [5] deals with T2, wild-type HIV-1 RT enzyme in BH10 backbone (Human immunodeficiency virus type 1 group M subtype B, UniProt P03366).
T2 construct: wild-type HIV RT enzyme derived from HIV subtype B (BH-10 strain)
The data set is described as follows: biochemical. As to conditions: for IC50: Average IC50 Values ± Standard Deviation, W.T.; for Fold Change, W.T.: Table 2, mutant vs wild-type; for Average Fold Changes ± Standard Deviation, W.T.: Table 4, IC50 mutant / IC50 wild-type. The text has this:
In Vitro Antiviral Activity Against Additional Mutant HIV RT Enzymes

The target of data set [6] is CYP2C19 (Homo sapiens, UniProt P33261). The data set is described as follows: Human liver microsomal CYP450 inhibition, CYP2C19. As to conditions: for IC50, CYP2C19: human liver microsomes.
Sequence of CYP2C19 (P33261 whole entry): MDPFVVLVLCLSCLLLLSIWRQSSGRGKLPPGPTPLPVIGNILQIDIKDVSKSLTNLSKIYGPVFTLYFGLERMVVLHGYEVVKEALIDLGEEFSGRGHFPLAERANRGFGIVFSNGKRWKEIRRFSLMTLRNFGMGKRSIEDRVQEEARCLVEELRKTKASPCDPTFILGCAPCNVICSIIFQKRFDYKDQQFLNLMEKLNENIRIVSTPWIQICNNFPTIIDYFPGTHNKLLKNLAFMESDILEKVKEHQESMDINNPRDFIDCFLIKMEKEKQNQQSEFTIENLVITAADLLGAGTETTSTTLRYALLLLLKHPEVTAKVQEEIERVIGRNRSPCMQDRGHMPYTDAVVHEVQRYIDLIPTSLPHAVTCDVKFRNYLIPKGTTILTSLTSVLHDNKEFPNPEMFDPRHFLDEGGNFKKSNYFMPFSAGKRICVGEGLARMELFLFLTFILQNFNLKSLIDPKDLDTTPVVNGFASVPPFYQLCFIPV
Procedure: as §2, §3
For data set [7], the system named is cynomolgus monkeys. The data set is described as follows: 14-day oral toxicity, monkeys. Format: in vivo, cynomolgus monkey. Particulars: for effects on food consumption or body weight: once daily oral gavage 14 days, up to 500 (I) or 450 (III) mg/kg/day. The protocol:
Sprague-Dawley rats and cynomolgus monkeys were dosed once daily for 14 days via oral gavage with compound I or compound III or dose vehicle (68% Capmul PG-8, 20% PEG 400, 2% Tween 20, and 10% Labrasol) according to GLP. There were 10 male and 10 female rats, and there were 3 male and 3 female monkeys. Rats and monkeys were dosed with 0, 50, 150 or 500 mg/kg/day compound I or with 0, 50, 150, 450 mg/kg/day compound III.
Toxicity was assessed using clinical observations, body weights, food consumption, and clinical pathology (hematology, coagulation, and serum chemistry).
A comprehensive necropsy and gross pathological examination was performed on all animals and selected organs and tissues were collected for histological evaluation.
Determinations of hematocrit, hemoglobin concentration, erythrocyte count, total leukocyte count, and platelet count were conducted on all samples. Leukocyte differential and morphologic assessments were performed.
Clinical biochemistry determinations included activities of alanine aminotransferase (ALT), aspartate aminotransferase (AST), gamma-glutamyltranspeptidase (GGT), and alkaline phosphatase (ALP) and concentrations of blood urea nitrogen (BUN), creatinine, total protein, albumin, globulin, glucose, cholesterol, triglycerides, total bilirubin, and electrolyte levels (Na, K, P, Cl, Ca).
Urine samples (monkeys only) were evaluated macroscopically and microscopically and tested for pH, bilirubin, glucose, protein, ketones, blood, urobilinogen, nitrites, leukocytes, and specific gravity.

The nature of data set [8]: Compound depletion in hepatocytes, dog. In kind it is in vitro ADME. As to conditions: up to 2 hours, read-out: t½, Compound Depletion in Hepatocytes, Dog. The protocol:
as §1

For data set [9], the system named is CYP3A4 (activation of PXR in DPX2 cells). The data set is described as follows: CYP3A4 induction screen in DPX2 cells. Format: cell-based, human. As to conditions: extent compared with rifampicine, mifepristone, androstanol. The text has this: The potential for in vitro induction of CYP3A4 was screened in DPX2 cells. The DPX2 cell line is a derivative of a human hepatocellular carcinoma cell line (HepG2) transformed with the human pregnane x receptor (PXR) and a reporter gene vector containing the enhancer region of CYP3A4. The potential for in vitro induction of CYP1A2 was screened in CYP1A2-DRE cells. The CYP1A2-DRE cell line is a stably transformed HepG2 cells with dioxin response elements (DRE) and reporter gene containing CYP1A2 promoter elements. The extent of CYP3A4 induction was determined by comparing the activation of PXR obtained with test article to that obtained with rifampicine (potent inducer), mifepristone (moderate inducer) and androstanol (weak inducer). The extent of CYP1A2 induction was determined by comparing the activation of the aryl hydrocarbon receptor (AhR) obtained with test article to that obtained with TCDD (potent inducer), omeprazole (moderate inducer), and 2-acetylaminofluorene (weak inducer).

The mark [10] stands for this setting: Table 1, in presence of detergent.
Where [11] appears, read: fresh hepatocytes plated on collagen-coated plates.

Consider `CO[P@](=O)(c1cc(C)cc(/C=C/C#N)c1)c1c(C(N)=O)[nH]c2ccc(Cl)c(F)c12` [Compound I, (2-Carbamoyl-5-chloro-4-fluoro-1H-indol-3-yl)-[3-((E)-2-cyano-vinyl)-5-methyl-phenyl]-(R)-phosphinic acid methyl ester], for which the half-life at 1 μM in [1] (microsomes) is 19.3 min; in [3] (hepatocytes), 63 ± 40 min; in [8] (hepatocytes) it was 28 ± 14 min. For the same molecule, the IC50 is greater than 20 µM in data set [2]; 366 ± 251 nM in [5] (setting [10]); 230 ± 50 nM in data set [5] (Table 3, N=10); 10.2 µM in data set [6]. The “IC50, CYP2B6” value in data set [2] is “not observed”. The EC50 was determined as 0.6 ± 0.2 nM in data set [4] (Human immunodeficiency virus 1, MT4, read-out: EC50, K103N, Example 16 comparative tables) and 0.9 nM in data set [4] (read-out: EC50, K103N, Example 16 comparative tables). In [4], the “Fold Change, K103N” value was determined as 0.9 ± 0.4 fold. In [5], the “Fold Change, W.T.” value was found to be 1 fold. The “Average Fold Changes ± Standard Deviation, W.T.” value in [5] was 1 fold. For the same molecule, the “IC50, CYP2C19” value in data set [6] is “not observed”. In addition, the “effects on food consumption or body weight” value in [7] is “No effects”. The “Induction, DPX2 (CYP3A4)” value in data set [9] is on record as “moderate inducers; also recorded: Moderate (n = 2)”.

As for `CO[P@](=O)(c1cc(C)cc(/C=C/C#N)c1)c1c(C(N)=O)[nH]c2ccc(Cl)cc12` [Compound III, (2-Carbamoyl-5-chloro-1H-indol-3-yl)-[3-((E)-2-cyano-vinyl)-5-methyl-phenyl]-(R)-phosphinic acid methyl ester], the half-life at 1 μM is 13.2 min in [1] (liver microsomes), 52 ± 24 min in data set [3] (setting [11]) and 21 ± 10 min in data set [8] (setting [11]). In addition, the IC50 in data set [2] was greater than 20 µM; in [5] (setting [10]), 343 ± 83 nM; in [5] (Table 3, N=10) it was 210 ± 20 nM; in data set [6] it was 10.2 µM. Also, the “IC50, CYP2B6” value in [2] was “not observed”. The “Fold Change, K103N” value in data set [4] is reported as 1.2 ± 0.4 fold. Also, the “Fold Change, W.T.” value in [5] is 1 fold. The “Average Fold Changes ± Standard Deviation, W.T.” value in data set [5] is 1 fold. Besides, the “IC50, CYP2C19” value in data set [6] is reported as “not observed”. Also, in [7] (mid and high doses, livers microscopically unremarkable), the organ weights entry is on record as “increased liver weights”. The “effects on food consumption or body weight” value in data set [7] was “No effects”. The “Induction, DPX2 (CYP3A4)” value in [9] is reported as “moderate inducers; also recorded: Moderate (n = 2)”.
